Test [1] deals with rosacea. Nature of the test: Topical treatment of patients with rosacea. It is filed as in vivo, human. The conditions noted are these: two patients, lotion form, 28 days; not in the untreated areas. The method, then: Rosacea: Two patients with rosacea were treated with Compound 25 for 28 days in a lotion form.
Test [2] relates to hand and facial eczema. The experiment in a line: Topical treatment of patients with hand and facial eczema. Format: in vivo, human. The conditions noted are these: four patients, topically applied in cream base over 14 days. The protocol: To test the effect of the compounds on treatment of human dermatologic disorders associated with increased CCL5 production by keratinocytes, Compound 11 and Compound 21 were formulated into a topically applied cream at a concentration of 7%. The compounds in the cream base were applied topically to human subjects suffering from dermatitis in an area of the skin with active skin lesions. The control was the topical cream base composition without the active compounds. Outcome was measured by reduction or disappearance to the lesion in the treated area vs the control area.
Eczema: Four patients with hand and facial eczema were treated with Compound 97 topically applied in a cream base over a period of 14 days. By day 7 the eczema had resolved in the area treated in three of the patients and by day 12 in the fourth patient. The eczema persisted in the areas not so treated.

Molecules are shown by their SMILES.

For the compound `CC(C)OC(=O)C(C)(C)Oc1ccc(C(F)(F)F)cc1` [Compound 25], the “rosacea in treated area at end of course of therapy” value in test [1] was “nearly disappeared”.
In the case of `CC(C)OC(=O)C(C)(C)Oc1ccc(C(=O)c2ccc(Cl)cc2)cc1` [Compound 97], the “eczema resolved in treated area by day (fourth patient)” value in test [2] (the fourth patient) is at most 12 days. Besides, in test [2] (three of the patients, eczema persisted in untreated areas), the “eczema resolved in treated area by day (three of the patients)” value was at most 7 days.

(Values after patent publication US11318111B2, “CCL5 inhibitors” (LAPKO INC., priority 2018, dated 2022).)
